“And” between values parts separate entries of the source, which are not always exact repeats. Identical values can stand only once.
Legend:
[1] = test system: primary malignant B cell lines; settings: cited from earlier work
cytochrome P450 3A4 = test system: cytochrome P450 3A4; set-up: method as in Bayer AG, data on file; settings: in vitro, humans; ref Bayer AG, data on file; cited from earlier work
[2] = cited from earlier work
[3] = test system: breast Cancer Resistance Protein (BCRP); set-up: method as in Bayer AG, data on file; settings: in vitro; ref Bayer AG, data on file; cited from earlier work
P-glycoprotein (P-gp) = test system: P-glycoprotein (P-gp); set-up: method as in Bayer AG, data on file; settings: in vitro; ref Bayer AG, data on file; cited from earlier work
[4] = Mass balance: excretion of radioactivity, copanlisib and metabolites in urine and feces; format: in vivo, human; settings: for Amount excreted in feces as this component, arithmetic mean (range): HPLC with off-line radioactivity detection
Description: After pooling and homogenization of urine and feces samples per time interval, aliquots were stored at −20 °C for total radioactivity determination and at −70°C for metabolic profiling (including blood/plasma samples). For determination of total radioactivity, samples were analyzed with a Perkin Elmer Tri-Carb™ 3100 TR liquid scintillation analyzer (Perkin Elmer, Waltham, MA, USA) with quenching correction. For metabolite profiling, plasma samples were treated with a mixture of acetonitrile (ACN) +0.2% acetic acid, after shaking and centrifugation, the supernatant was concentrated. Urine and feces samples were treated with solid-phase extraction (Waters HLB 30 mg, 1 mL, Waters, Milford, MA, USA) and liquid–liquid extraction (ACN + 0.2% trifluoroacetic acid/water, 80:20 volume/volume), respectively. Subsequently samples from plasma, urine and feces were analyzed by HPLC-LSC on Synergi Polar 4 µm 150 × 2 mm (Phenomenex, Aschaffenburg, Germany) with off-line radioactivity detection by Microbeta^2™ Plus liquid scintillation counter with Ultima Flo™ AP scintillation fluid (Packard Instrument BV, Groningen, The Netherlands).
Metabolite patterns in plasma, urine and feces were studied by the HPLC method with off-line radioactivity detection described above.
A similar approach has been described earlier.

[5] = all 6 subjects after individual study release (Day 20–Day 34)
[6] = study release at Day 20 (N = 6)
[7] = study release at Day 27 (N = 5)
[8] = study release at Day 34 (N = 3)

## COc1c(OCCCN2CCOCC2)ccc2c1N=C(NC(=O)c1cnc(N)nc1)N1CCN=C21 [Copanlisib, copanlisib]
[1]
  Tumor cell death: induce tumor cell death including apoptosis
Cytochrome P450 3A4
  Involvement of cytochrome P450 3A4 in the primary biotransformation step: predominant involvement
[2]; %CV 51.2, dose escalation study
  mean systemic plasma clearance: 18.9 L/h
[2]; PK on Cycle 1 Days 1 and 15 and Cycle 3 Day 15, dose escalation study
  Accumulation and time dependency after once weekly dosing: No accumulation and no time dependency
[2]
  Half-life, range (known PK of copanlisib): 16.9 to 72.7 h
[2]; dose range 0.1–1.2 mg/kg (5–93 mg total dose), dose escalation study
  Dose dependence of C max and AUC (0–25): dose proportional increases
[2]; human, in vivo, 0.8 mg/kg
  terminal phase half-life (t 1/2): 39.1 h
  volume of distribution: 871 L
[3]
  Substrate of efflux transporter BCRP: substrate
P-glycoprotein (P-gp)
  Substrate of efflux transporter P-gp: substrate
[4]; [5]
  Total radioactivity excreted in feces, arithmetic mean: 64.2 (56.7–68.1) % of dose
  Total radioactivity excreted in feces, range: 56.7–68.1%
  Total radioactivity excreted in urine, arithmetic mean: 21.7 (17.0–27.4) % of dose
  Total radioactivity excreted in urine, range: 17.0–27.4%
  Total radioactivity recovery in urine and feces, mean: 86% and 85.9 ± 3.4% and about 86%
  Total radioactivity recovery in urine and feces, range: 81.7–91.0%
[4]; 6 subjects
  Amount excreted in feces as this component, arithmetic mean (range): 30.1 (16.8–37.9) % of dose
[4]; 6 subjects, listed as copanlisib
  Amount excreted in feces as this component, arithmetic mean (range): 30 % of dose
[4]; in vivo
  Dose cleared via metabolism: about 41%
  Renal clearance (A e,ur/AUC) as share of total body clearance: about 15%
  Share of observed renal clearance accounted for by passive renal filtration: about one to two-thirds
[4]; [6]
  Excreted radioactivity in feces, mean: 61.0 ± 4.1%
  Excreted radioactivity in feces, range: 54.8–66.7%
  Excreted radioactivity in urine, mean: 20.0 ± 3.5%
  Excreted radioactivity in urine, range: 16.3–26.5%
  Excreted total radioactivity in urine and feces, mean: 81.0 ± 2.1%
  Excreted total radioactivity in urine and feces, range: 77.8–83.0%
[4]; [7]
  Excreted radioactivity in feces, mean: 63.4 ± 4.5%
  Excreted radioactivity in feces, range: 56.7–67.4%
  Excreted radioactivity in urine, mean: 21.5 ± 3.9%
  Excreted radioactivity in urine, range: 17.0–27.4%
  Excreted total radioactivity in urine and feces, mean: 84.9 ± 2.3%
  Excreted total radioactivity in urine and feces, range: 82.3–88.5%
[4]; [8]
  Excreted radioactivity in feces, mean: 66.1 ± 3.2%
  Excreted radioactivity in feces, range: 62.4–68.1%
  Excreted radioactivity in urine, mean: 22.2 ± 1.4%
  Excreted radioactivity in urine, range: 20.6–23.1%
  Excreted total radioactivity in urine and feces, mean: 88.3 ± 2.9%
  Excreted total radioactivity in urine and feces, range: 85.2–91.0%
[4]; urine and feces
  Radioactivity excreted that could be assigned to known structures: Over 98%
[4]; urine plus feces, 6 subjects
  Amount of dose recovered as this component in urine and feces combined: 45.1 % of dose
[4]; urine plus feces, range of 6 subjects
  Amount of dose recovered as this component in urine and feces combined, range: 33.3–53.8%

From paper PMC5573760 (Cancer Chemotherapy and Pharmacology, 2017)
